16 substances from patent US20240150423A1, “GLP-1 ANALOGUE-MODIFIED DIMERS WITH DIFFERENT CONFIGURATIONS, PREPARATION METHOD THEREOF, AND APPLICATION THEREOF IN TREATMENT OF TYPE II DIABETES” (Nanjing Finepeptide Biopharmaceutical Co.,Ltd, priority 2019, published 2024) can be followed below.

Non-standard residues stand in square brackets, D forms with d. No end group written: not given here. Aib = CC(C)(N)C(=O)O

The assay concerns Normal Kunming (KM) mice. Nature of the assay: multiple OGTT (mOGTT): hypoglycemic duration after a single administration. In kind it is in vivo. Conditions: monomeric peptides, single injection at the same dose (1.126 nmol), subcutaneous. The gist of the method:
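Tail blood glucose was followed by meter in normal KM mice after one dosing and glucose gavage, at 0, 10, 20, 40, 60 and 120 min. Measurement stopped when the treated mean rose above the NaCl group twice; the period before that is the effective duration.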

Turning to “His-aAib-Glu-Gly-Thr-Phe-Thr-Cys-Asp-Val-Ser-Ser-Tyr-Leu-Glu-Gly-Gln-Ala-Ala-Lys-Glu-Phe-Ile-Ala-Trp-Leu-Val-Lys-aAib-Arg-NH2 (H[Aib]EGTFTCDVSSYLEGQAAKEFIAWLVK[Aib]R-NH2; N-terminus assumed; SMILES CC[C@H](C)[C@H](NC(=O)[C@H](Cc1ccccc1)NC(=O)[C@H](CCC(=O)O)NC(=O)[C@H](CCCCN)NC(=O)[C@H](C)NC(=O)[C@H](C)NC(=O)[C@H](CCC(N)=O)NC(=O)CNC(=O)[C@H](CCC(=O)O)NC(=O)[C@H](CC(C)C)NC(=O)[C@H](Cc1ccc(O)cc1)NC(=O)[C@H](CO)NC(=O)[C@H](CO)NC(=O)[C@@H](NC(=O)[C@H](CC(=O)O)NC(=O)[C@H](CS)NC(=O)[C@@H](NC(=O)[C@H](Cc1ccccc1)NC(=O)[C@@H](NC(=O)CNC(=O)[C@H](CCC(=O)O)NC(=O)C(C)(C)NC(=O)[C@@H](N)Cc1c[nH]cn1)[C@@H](C)O)[C@@H](C)O)C(C)C)C(=O)N[C@@H](C)C(=O)N[C@@H](Cc1c[nH]c2ccccc12)C(=O)N[C@@H](CC(C)C)C(=O)N[C@H](C(=O)N[C@@H](CCCCN)C(=O)NC(C)(C)C(=O)N[C@@H](CCCNC(=N)N)C(N)=O)C(C)C) [G8 series 65]”, the “Hypoglycemic” value worked out at 2 days. The value for “His-aAib-Glu-Gly-Thr-Phe-Thr-Cys-Asp-Val-Ser-Ser-Tyr-Leu-Glu-Gly-Gln-Ala-Ala-Lys[N-ϵ-(N-α-Palmitoyl-γ-glutamyl)]-Glu-Phe-Ile-Ala-Trp-Leu-Val-Arg-Gly-Arg-Gly-NH2 (HXEGTFTCDVSSYLEGQAAXEFIAWLVRGRG; Aib; palmitoyl-gamma-Glu on Lys; C-terminal amide; Sequence is synthesized; (2)..(2) Xaa is aAib; (20)..(20) Xaa is 26Lys[N-e-(N-a-palmitoyl-L-g-glutamyl)]; (31)..(31) N-terminal) [G8 series 61]” was 4 days.

As for “His-aAib-Glu-Gly-Thr-Phe-Thr-Cys-Asp-Val-Ser-Ser-Tyr-Leu-Glu-Gly-Gln-Ala-Ala-Lys[N-ϵ-(N-α-Palmitoyl-γ-glutamyl)]-Glu-Phe-Ile-Ala-Trp-Leu-Val-Arg-Gly-Arg-Gly-OH (HXEGTFTCDVSSYLEGQAAXEFIAWLVRGRG; Aib; palmitoyl-gamma-Glu on Lys; C-terminal acid; Sequence is synthesized; (2)..(2) Xaa is aAib; (20)..(20) Xaa is 26Lys[N-e-(N-a-palmitoyl-L-g-glutamyl)]; (31)..(31) C-terminal) [G8 series 60]”, the “Hypoglycemic” value was determined as 2 days. Regarding “His-aAib-Glu-Gly-Thr-Phe-Thr-Cys-Asp-Val-Ser-Ser-Tyr-Leu-Glu-Gly-Gln-Ala-Ala-Lys[N-ϵ-(N-α-oleoyl-L-γ-glutamyl)]-Glu-Phe-Ile-Ala-Trp-Leu-Val-Arg-Gly-Arg-Gly-NH2 (HXEGTFTCDVSSYLEGQAAXEFIAWLVRGRG; Aib; oleoyl-gamma-Glu on Lys; C-terminal amide; Sequence is synthesized; (2)..(2) Xaa is aAib; (20)..(20) Xaa is 26Lys[N-e-(N-a-oleoyl-L-g-glutamyl)]; (31)..(31) N-terminal) [G8 series 62]”, the “Hypoglycemic” value was 5 days. The value for “His-aAib-Glu-Gly-Thr-Phe-Thr-Cys-Asp-Val-Ser-Ser-Tyr-Leu-Glu-Gly-Gln-Ala-Ala-Lys[N-ϵ-(N-α-oleoyl-L-γ-glutamyl)]-Glu-Phe-Ile-Ala-Trp-Leu-Val-Arg-Gly-Arg-Gly-OH (HXEGTFTCDVSSYLEGQAAXEFIAWLVRGRG; Aib; oleoyl-gamma-Glu on Lys; C-terminal acid; Sequence is synthesized; (2)..(2) Xaa is aAib; (20)..(20) Xaa is 26Lys[N-e-(N-a-oleoyl-L-g-glutamyl)]; (31)..(31) C-terminal) [G8 series 63]” was 2 days. “His-aAib-Glu-Gly-Thr-Phe-Thr-Ser-Asp-Val-Cys-Ser-Tyr-Leu-Glu-Gly-Gln-Ala-Ala-Lys[N-ϵ-(N-α-Palmitoyl)]-Glu-Phe-Ile-Ala-Trp-Leu-Val-Arg-Gly-Arg-Gly-NH2 (HXEGTFTSDVCSYLEGQAAXEFIAWLVRGRG; αAib; palmitoyl on Lys; C-terminal amide; Sequence is synthesized; (2)..(2) Xaa is aAib; (20)..(20) Xaa is 26Lys[N-e-(N-a-palmitoyl-L-g-glutamyl)]; (31)..(31) N-terminal) [G4 series 28]”: the “Hypoglycemic” value turned out to be 7 days. Regarding “His-aAib-Glu-Gly-Thr-Phe-Thr-Ser-Asp-Val-Cys-Ser-Tyr-Leu-Glu-Gly-Gln-Ala-Ala-Lys[N-ϵ-(N-α-Palmitoyl-γ-glutamyl)]-Glu-Phe-Ile-Ala-Trp-Leu-Val-Arg-Gly-Arg-Gly-NH2 (HXEGTFTSDVCSYLEGQAAXEFIAWLVRGRG; αAib; palmitoyl-γ-glutamyl on Lys; C-terminal amide; Sequence is synthesized; (2)..(2) Xaa is aAib; (20)..(20) Xaa is 26Lys[N-e-(N-a-Palmitoyl-g-glutamyl)]; (31)..(31) N-terminal) [G2 series 12]”, the “Hypoglycemic” value came out at 6 days. In the case of “His-aAib-Glu-Gly-Thr-Phe-Thr-Ser-Asp-Val-Cys-Ser-Tyr-Leu-Glu-Gly-Gln-Ala-Ala-Lys[N-ϵ-(N-α-Palmitoyl-γ-glutamyl)]-Glu-Phe-Ile-Ala-Trp-Leu-Val-Arg-Gly-Arg-Gly-OH (HXEGTFTSDVCSYLEGQAAXEFIAWLVRGRG; αAib; palmitoyl-γ-glutamyl on Lys; C-terminal acid; Sequence is synthesized; (2)..(2) Xaa is aAib; (20)..(20) Xaa is 26Lys[N-e-(N-a-Palmitoyl-g-glutamyl)]; (31)..(31) C-terminal) [G2 series 11]” it was 4 days; in that of “His-aAib-Glu-Gly-Thr-Phe-Thr-Ser-Asp-Val-Cys-Ser-Tyr-Leu-Glu-Gly-Gln-Ala-Ala-Lys[N-ϵ-(N-α-oleoyl)]-Glu-Phe-Ile-Ala-Trp-Leu-Val-Arg-Gly-Arg-Gly-NH2 (HXEGTFTSDVCSYLEGQAAXEFIAWLVRGRG; αAib; oleoyl on Lys; C-terminal amide; Sequence is synthesized; (2)..(2) Xaa is aAib; (20)..(20) Xaa is 26Lys[N-e-(N-a-oleoyl-L-g-glutamyl)]; (31)..(31) N-terminal) [G4 series 29]”, 7 days; in that of “His-aAib-Glu-Gly-Thr-Phe-Thr-Ser-Asp-Val-Cys-Ser-Tyr-Leu-Glu-Gly-Gln-Ala-Ala-Lys[N-ϵ-(N-α-oleoyl-L-γ-glutamyl)]-Glu-Phe-Ile-Ala-Trp-Leu-Val-Arg-Gly-Arg-Gly-NH2 (HXEGTFTSDVCSYLEGQAAXEFIAWLVRGRG; αAib; oleoyl-γ-glutamyl on Lys; C-terminal amide; Sequence is synthesized; (2)..(2) Xaa is aAib; (20)..(20) Xaa is 26Lys[N-e-(N-a-oleoyl-L-g-glutamyl)]; (31)..(31) N-terminal) [G2 series 13]”, 7 days.

On to “His-aAib-Glu-Gly-Thr-Phe-Thr-Ser-Asp-Val-Cys-Ser-Tyr-Leu-Glu-Gly-Gln-Ala-Ala-Lys[N-ϵ-(N-α-oleoyl-L-γ-glutamyl)]-Glu-Phe-Ile-Ala-Trp-Leu-Val-Arg-Gly-Arg-Gly-OH (HXEGTFTSDVCSYLEGQAAXEFIAWLVRGRG; αAib; oleoyl-γ-glutamyl on Lys; C-terminal acid; Sequence is synthesized; (2)..(2) Xaa is aAib; (20)..(20) Xaa is 26Lys[N-e-(N-a-oleoyl-L-g-glutamyl)]; (31)..(31) C-terminal) [G2 series 14]”, for which the “Hypoglycemic” value turned out to be 4 days. With “His-aAib-Glu-Gly-Thr-Phe-Thr-Ser-Asp-Val-Ser-Cys--Tyr-Leu-Glu-Gly-Gln-Ala-Ala-Lys[N-ϵ-(N-α-oleoyl-L-γ-glutamyl)]-Glu-Phe-Ile-Ala-Trp-Leu-Val-Arg-Gly-Arg-Gly-NH2 (HXEGTFTSDVSCYLEGQAAXEFIAWLVRGRG; Aib; oleoyl-gamma-Glu on Lys; C-terminal amide; Sequence is synthesized; (2)..(2) Xaa is aAib; (20)..(20) Xaa is 26Lys[N-e-(N-a-oleoyl-L-g-glutamyl)]; (31)..(31) N-terminal) [G6 series 47]”, the “Hypoglycemic” value is 8 days. In the case of “His-aAib-Glu-Gly-Thr-Phe-Thr-Ser-Asp-Val-Ser-Cys-Tyr-Leu-Glu-Gly-Gln-Ala-Ala-Lys-Glu-Phe-Ile-Ala-Trp-Leu-Val-Arg-aAib-Arg-NH2 (H[Aib]EGTFTSDVSCYLEGQAAKEFIAWLVR[Aib]R-NH2; also: disulfide-linked homodimer via Cys) [G7 series 51]” it was 3 days; in that of “His-aAib-Glu-Gly-Thr-Phe-Thr-Ser-Asp-Val-Ser-Cys-Tyr-Leu-Glu-Gly-Gln-Ala-Ala-Lys-Glu-Phe-Ile-Ala-Trp-Leu-Val-Arg-aAib-Arg-OH (H[Aib]EGTFTSDVSCYLEGQAAKEFIAWLVR[Aib]R-OH; also: disulfide-linked homodimer via Cys) [G7 series 52]”, 1 days; in that of “His-aAib-Glu-Gly-Thr-Phe-Thr-Ser-Asp-Val-Ser-Cys-Tyr-Leu-Glu-Gly-Gln-Ala-Ala-Lys-Glu-Phe-Ile-Ala-Trp-Leu-Val-Lys-aAib-Arg-NH2 (H[Aib]EGTFTSDVSCYLEGQAAKEFIAWLVK[Aib]R-NH2; also: disulfide-linked homodimer via Cys) [G7 series 53]”, 3 days. In the case of “His-aAib-Glu-Gly-Thr-Phe-Thr-Ser-Asp-Val-Ser-Cys-Tyr-Leu-Glu-Gly-Gln-Ala-Ala-Lys[N-ϵ-(N-α-Palmitoyl)]-Glu-Phe-Ile-Ala-Trp-Leu-Val-Arg-Gly-Arg-Gly-NH2 (HXEGTFTSDVSCYLEGQAAXEFIAWLVRGRG; not fully specified; Aib; palmitoyl on Lys side chain; C-terminal amide; Sequence is synthesized; (2)..(2) Xaa is aAib; (20)..(20) Xaa is 26Lys[N-e-(N-a-palmitoyl-L-g-glutamyl)]; (31)..(31) N-terminal) [G4 series 37]” it was 7 days.
